Source: patent publication US9388126B2, “Sigma receptor ligands and methods of modulating cellular protein homeostasis using same” (Drexel University, priority 2012, dated 2016)

Experiments:
MDA-MB-468 cells = assay: SubG1 population by flow cytometry; type: cell-based, human; conditions: 10 μM, 48 h
Experimental: FIG. 29 illustrates the time-course of a Sigma1 antagonist inducing apoptotic cell death of breast adenocarcinoma cells. Treatment with Sigma1 antagonist, IPAG, induces apoptotic cell death of MDA-MB-468 cells, as indicated by the percentage of subG1 phase cells. […] The far left panel represents cells treated or 24 hours with DMSO (vehicle control).
FIG. 37, comprising FIGS. 37A-37D, illustrates that inhibition of autophagy accelerates and/or potentiates Sigma1 antagonist induced apoptosis. FIG. 37A is a graph illustrating the time-course of Sigma antagonist-induced cell death as measured by flow cytometry. MDA-MB-468 cells were treated with DMSO (control), 10 μM IPAG (antagonist), or 10 μM PRE084 (agonist), fixed and stained with propidium iodide for DNA content analysis. The subG1 population was quantified and used as a measure of cell death. Data are from 4 independent determinations. FIG. 37B is an image of a Western blot of caspase 3 (Asp175) cleavage. IPAG induced apoptotic cell death occurred at the 48 hour treatment time point. FIG. 37C is a graph illustrating DA-MB-468 cells treated for 24 hours with a combination of IPAG (10 μM) and autophagy inhibitor 3-methyladenine (3-MA, 5 mM). Cell death was measured by trypan blue exclusion. […] For FIGS. 37A-37C, statistical significance was determined by two-way ANOVA followed by Bonferroni post-test, ***P<0.001.

[1] = test system: MCF-7, T47D, DU145, PC3, HepG2 and Panc1 cells; assay: LC3BII immunoblot in a range of tumor cell lines; type: cell-based, human; conditions: 10 μM, 24 hours
Experimental: FIG. 36, comprising FIGS. 36A-36C, illustrates Sigma1 antagonist associated autophagy. FIG. 36A, comprises representative images of translocation of GFP-tagged LC3 (LC3-GFP) into autophagosomes in MDA-MB-468 (MDA468) breast adenocarcinoma cells. Only antagonist-treated MDA-MB-468 cells presented LC3-GFP translocation to autophagosomes: […]. […] The images are representative of at least 80 fields for each treatment condition. FIG. 36B is an image of an immunoblot illustrating the finding that formation of GFP-LC3II the formation of GFP-LC3 positive punctae, an indicator of autophagosome formation. Protein extracts from MDA-MB-468 cells stably transfected with and expressing GFP-LC3, treated for 24 hours with 10 μM of the indicated Sigma1 ligand. FIG. 36C comprises images of immunoblots illustrating that increased levels of the microtubule associated protein light chain 3BII isoform (LC3BII) is another broadly used indicator of activated autophagy. […] Legend: MCF-7 (breast adenocarcinoma), T47D (breast adenocarcinoma), DU145 (prostate adenocarcinoma), PC3 (prostate adenocarcinoma), HepG2 (hepatocellular carcinoma), and Panc1 (pancreatic adenocarcinoma).

[2] = target: T1, Sigma1-HA-His6 protein associations in MDA-MB-468 cells (Mus musculus, UniProt O55242); assay: Ni-NTA co-purification of Sigma1-HA-His6 associated proteins; type: cell-based; conditions: 10 μM, 12 hours
T1 construct: expressed in transfected cells; host or cells: MDA-MB-468 breast adenocarcinoma cells
T1 sequence (O55242 whole entry): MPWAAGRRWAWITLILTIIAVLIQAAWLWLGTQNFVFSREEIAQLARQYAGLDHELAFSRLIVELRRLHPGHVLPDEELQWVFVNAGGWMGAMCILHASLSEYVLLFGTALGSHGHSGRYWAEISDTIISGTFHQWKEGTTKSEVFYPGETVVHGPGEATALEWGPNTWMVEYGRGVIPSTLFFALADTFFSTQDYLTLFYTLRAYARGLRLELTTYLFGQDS
Excerpt: FIG. 44, comprising FIGS. 44A-44D, illustrates the finding that p97/VCP is a Sigma1 associated protein. A novel assay was developed to evaluate Sigma1 ligand modulation of Sigma1 functions involving protein-protein interactions. FIG. 44A is an image of an immunoblot confirming expression of p97/VCP and Sigma1-HA-His6 in detergent soluble cell extracts added to Ni-NTA resin (input). FIG. 44B is an image of an immunoblot relating to eluate from a Ni-NTA affinity purified fraction. Co-isolation/co-purification of p97/VCP was accomplished with Sigma1-HA-His6, which was isolated/purified by Ni-NTA. […] FIG. 44C is an image of an immunoblot confirming expression of p97/VCP and Sigma1-HA-His6 in detergent-soluble cell extracts from MDA-MB-468 breast adenocarcinoma cells treated for 12 hours with 10 μM IPAG (Sigma1 putative antagonist); the extracts were added to Ni-NTA resin (input). FIG. 44D is an image of an immunoblot illustrating eluate from a Ni-NTA affinity purified fraction. Co-isolation/co-purification of p97/VCP was accomplished with Sigma1-HA-His6, which was isolated/purified by Ni-NTA. […] Molecular mass is presented in kilodaltons (kDa).
FIG. 45, comprising FIGS. 45A-45B, illustrates the finding that ubiquitylated proteins are bound to Sigma1. A novel assay was developed to evaluate Sigma1 ligand modulation of Sigma functions involving association with ubiquitylated proteins. […]

Sigma1 in SKBR3 cells = target: T2, Sigma1 in SKBR3 cells (Homo sapiens, UniProt Q99720); assay: Sigma1 protein level and sub-cellular fractionation; type: cell-based; conditions: 12-16 hours
T2 construct: endogenous in cells; host or cells: SKBR3
T2 sequence (Q99720 whole entry): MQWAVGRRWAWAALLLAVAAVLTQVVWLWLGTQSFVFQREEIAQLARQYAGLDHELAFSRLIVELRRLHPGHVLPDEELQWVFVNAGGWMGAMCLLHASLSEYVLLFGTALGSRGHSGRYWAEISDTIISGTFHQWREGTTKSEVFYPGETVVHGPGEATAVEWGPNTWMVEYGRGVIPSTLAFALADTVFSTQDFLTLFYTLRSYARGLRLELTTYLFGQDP
Experimental: FIG. 66, comprising FIGS. 66A-66H, illustrates the non-limiting mechanism(s) of Sigma1 ligand actions, wherein Sigma ligand treatment induces differential localization of Sigma1. […] FIG. 66B is an immunoblot of the fractions collected from biochemical sub-cellular fractionation assay. […] FIG. 66C is a graph illustrating quantification of bands in FIG. 66B. FIG. 66D is a set of images of confocal immunofluorescence microscopy of Sigma1 in SKBR3 cells treated for 12-16 hours with IPAG. Green signal indicated Sigma1, blue signal (DAPI) indicated nucleus. FIG. 66E is a set of graphs illustrating quantification of fractions collected from biochemical sub-cellular fractionation assay performed using SKBR3 cells. […] Functional and physical association with LC3II and functional interaction with VCP are reported in the literature. FIG. 66H is a set of confocal microscopy images, with evidence of co-localization of poly-ubiquitylated proteins and p62SQSTM. […] The ubiquitin-p62SQSTM co-localization and distribution pattern changed subsequent to IPAG treatment. […] Sigma1 functional related and physical associated proteins were redistributed to the other parts of the cell, especially into autophagosome.

## N=C(Nc1ccc(I)cc1)NC1C2CC3CC(C2)CC1C3 (stereo not drawn) [IPAG, 1-(4-iodophenyl)-3-(2-adamantyl)guanidine]
MDA-MB-468 cells
  subG1 (dead, apoptotic) cells: 31.7%
[1]
  LC3BII levels: salient induction of LC3BII levels
[2]
  Sigma1-associated p97/VCP in Ni-NTA eluate: Lower levels of Sigma1-associated p97/VCP
  Sigma1-associated ubiquitylated proteins in Ni-NTA eluate: Increased levels of Sigma1-associated ubiquitylated proteins
Sigma1 in SKBR3 cells
  Sigma1 steady-state protein levels: Sigma1 steady-state protein levels do not change
  Sigma1 sub-cellular distribution: Sigma1 distribution is altered
